Results as given in patent US8133882B2, “Quinolone derivative or pharmaceutically acceptable salt thereof” (Astellas Pharma Inc, priority 2006, dated 2012).

Key:
[1] = tested on: human platelet aggregation (ADP-induced, platelet rich plasma); experiment: Human platelet aggregation inhibition activity measuring test (ADP-induced, PRP); assay type: cell-based; conditions: 10 μM final concentration of compound; human PRP 3×10^8 platelets/ml; ADP (50 μM, 10 μl) induced; area under platelet aggregation curve
Description: Test Method (1) Human Platelet Aggregation Inhibition Activity Measuring Test
A blood sample was collected from a healthy volunteers (adult) using a syringe containing 1/10th volume of 3.8% sodium citrate solution and centrifuged at 160×g for 10 minutes, thereby separating platelet rich plasma (PRP) of the supernatant. Remaining blood after the collection of PRP was centrifuged at 1,800×g for 10 minutes to separate platelet poor plasma (PPP). The number of platelets in the PRP was measured by an automatic blood cell counter (MEK-6258, Nihon Kohden Corp.), and then the number of platelets was adjusted to 3×10^8/ml by adding PPP to PRP and used in the following test. The ADP as an inducer of platelet aggregation was purchased from MC Medical. Platelet aggregation was measured using an aggregometer (MCM Hematracer 212; MC Medical). That is, 80 μl of PRP of 3×10^8 platelets/ml and 10 μl of a test compound solution or a solvent (10% DMSO or 10% DMSO-9% hydroxypropyl-β-cyclodextrin-4.5% d-mannitol) were incubated at 37° C. for 1 minute, and then 10 μl of ADP (50 μM) was added thereto to induce platelet aggregation, and changes in transmitted light were recorded for 5 minutes. The inhibition ratio was calculated using the area under platelet aggregation curve as an index.
In this connection, REx represents reference example number, and Ex Example compound number. In addition, Reference Examples 1 and 2 are the Example compounds described in the aforementioned Patent Reference 7, and were produced in accordance with the method described in said patent reference.

Human P2Y12 = target: T1, Human P2Y12 (Homo sapiens, UniProt Q9H244); experiment: Substitution test for the binding of human P2Y12 with 2-methylthio-ADP (2-MeS-ADP); conditions: 30 nM final concentration of compound; P2Y12 expression C6-15 cell membrane fraction; 0.75 nM [3H]- or [33P]-2-MeS-ADP
T1 construct: expressed in transfected cells; membrane fraction used
T1 sequence (Q9H244 whole entry): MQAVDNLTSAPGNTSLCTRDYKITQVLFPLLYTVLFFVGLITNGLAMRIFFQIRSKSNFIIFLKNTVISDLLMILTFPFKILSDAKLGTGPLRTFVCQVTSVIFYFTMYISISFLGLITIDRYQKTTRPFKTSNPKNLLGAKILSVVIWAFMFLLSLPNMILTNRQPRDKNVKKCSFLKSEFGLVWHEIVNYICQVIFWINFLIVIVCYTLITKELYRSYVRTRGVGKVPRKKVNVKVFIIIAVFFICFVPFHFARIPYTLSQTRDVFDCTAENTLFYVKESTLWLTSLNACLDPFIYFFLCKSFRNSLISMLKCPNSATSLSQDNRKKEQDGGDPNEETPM
Description: Test Method (2) Substitution Test for the Binding of Human P2Y12 with 2-methylthio-ADP (2-MeS-ADP)
A C6-15 cell was inoculated into a 10 cm petri dish to a density of to 1×10^6 cells using DMEM medium and cultured for 1 day, and then 8 μg of a plasmid pEF-BOS-dfhr-human P2Y12 and 0.8 μg of pEF-BOS-neo (Nucleic Acid Res., 18, 5322, 1990) were gene-transferred using a transfection reagent (LipofectAMINE 2000; mfd. by GIBCO BRL).
24 hours after the aforementioned gene transfer operation, the gene-transferred cells were recovered, suspended in DMEM medium supplemented with 0.6 mg/ml of G 418 (mfd. by GIBCO BRL) and then serially diluted and inoculated again in a 10 cm petri dish. The colonies appeared after 2 weeks were individually obtained and used in the following test as P2Y12 protein expression C6-15 cells (WO 02/36631, Mol. Pharmacol., 60, 432, 2001).
After culturing the P2Y12 protein expression C6-15 cells, the cells were recovered. […]
A 100 μl portion of the P2Y12 protein expression C6-15 cell membrane fraction (100 μg/ml) obtained in the above was mixed with 1.5 μl of a test compound solution and 50 μl of 0.75 nM [^3H]-2-MeS-ADP (80 Ci/mmol, mfd. by Amersham Pharmacia Biotech) or 0.75 nM [^33P]-2-MeS-ADP (2100 Ci/mmol, mfd. by Perkin Elmer), incubated at room temperature for 1 hour in 50 mM Tris-HCl (pH 7.4) containing 100 mM NaCl and 50 mM MgCl2, and then recovered on a glass filter using a cell harvester. A microscintillator was added to the glass filter, and the radioactivity was measured using a liquid scintillation counter. Those to which the solvent alone was added and 1.5 μl of 250 μM ADP was added in the aforementioned test at the same time were regarded as total binding and nonspecific binding, and their radioactivity was measured. By regarding the total binding and nonspecific binding as inhibition ratio 0% and 100% respectively, inhibition ratio (%) of each compound to be tested was calculated.

[2] = tested on: rat platelet aggregation (ADP-induced, PRP); experiment: Rat platelet aggregation inhibition test (oral administration, ex vivo ADP-induced aggregation); assay type: in vivo; conditions: dose 30 mg/kg oral, male SD rat, blood collected 2 hours after administration
Description: Test Method (3) Rat Platelet Aggregation Inhibition Test and Measurement of Test Compound Concentration in Plasma
By adding sodium hydroxide aqueous solution to the compound of the present invention, 0.5% methyl cellulose aqueous solution or suspension was prepared. The thus prepared liquid was orally administered using a sonde to a male SD rat (5 to 7 weeks of age) of after 12 hours or more of fasting. After 2 hours of the compound administration, blood was collected using a syringe containing 1/10th volume of 3.8% sodium citrate solution. In the same manner as in Test method (1), PPP and PRP of 3×10^8 platelets/ml were prepared. A 90 μl portion of the PRP of 3×10^8 platelets/ml was incubated at 37° C. for 1 minute, and then 10 μl of ADP (50 μM) was added thereto to induce platelet aggregation, and changes in transmitted light were recorded for 5 minutes. The inhibition ratio was calculated using the area under platelet aggregation curve as an index.

O=C(O)CNC(=O)c1cn(C2CCCC2)c2cc(NC3CCCCC3)c(F)cc2c1=O [REx 2, ({[7-(cyclohexylamino)-1-cyclopentyl-6-fluoro-4-oxo-1,4-dihydroquinolin-3-yl]carbonyl}amino)acetic Acid]
inhibition at 10 µM [1]: 79% | inhibition at 0.03 µM (Human P2Y12): 86% | inhibition at 30 mg/kg [2]: -7%

O=C(O)CCC(=O)Nc1cn(C2CCCC2)c2cc(NC3CCCCC3)c(F)cc2c1=O [Ex 2, 4-{[7-(cyclohexylamino)-1-cyclopentyl-6-fluoro-4-oxo-1,4-dihydroquinolin-3-yl]amino}-4-oxobutanoic acid]
inhibition at 10 µM [1]: 93% | inhibition at 0.03 µM (Human P2Y12): 89%

O=C(O)CCCNC(=O)c1cn(C2CCCC2)c2cc(NC3CCCCC3)c(F)cc2c1=O [REx 1, 4-({[7-(cyclohexylamino)-1-cyclopentyl-6-fluoro-4-oxo-1,4-dihydroquinolin-3-yl]carbonyl}amino)butanoic Acid]
inhibition at 10 µM [1]: 64% | inhibition at 0.03 µM (Human P2Y12): 76% | inhibition at 30 mg/kg [2]: 11%
